From patent US9980942B2, “Rejuvenation of precursor cells” (Children's Hospital Medical Center, priority 2012, dated 2018)
“Also recorded” adds a separate entry of the source.

Experiments:
[1] = Weight of young and aged mice after CASIN; format: in vivo, C57BL/6 mice; details: aged mice, 2.4 mg/kg twice a day for 5 days intraperitoneal, after 1 week
Procedure: CASIN was given at a dose of 2.4 mg/kg twice a day 6 hours apart for 5 days via intraperitoneal injection in both young (10-12 wk old) and aged (22-24 month old) C57BL/6 mice. Aged C57BL/6 mice present with elevated Cdc42 activity in multiple tissues. Weight of the mice was determined in the young and aged control group (no CASIN, just vehicle (PBS/15% Ethanol)) at initiation of the experiment and after 1 week, as well as in the CASIN treated groups (young and aged) at initiation and 1 week after.

[2] = system: intestinal epithelium; assay: In vivo rejuvenation of intestinal epithelium (immunohistochemistry); details: vs untreated aged mice
Procedure: To test the extent to which CASIN rejuvenates skin and intestinal epithelium in vivo, aged (22-24 month old B1 6) and young (10-12 week old B1 6) mice were injected with CASIN twice daily (2.4 mg/Kg in PBS and 15% EtOH). A group of control mice in each age group were not given the drug. The injections were given 6 hours apart for 5 days. After 28 days, the mice were sacrificed and skin and intestinal samples were processed for immunohistochemistry.
To further assess the effects of in vivo administration of CASIN on aging parameters in the intestinal epithelium, aged mice were treated with CASIN as described in Example 5. After 28 days, the mice were sacrificed and intestinal samples were processed for immunohistochemistry, including staining for intestinal stem cell markers Bmi1 and Lgr5.

[3] = aged mice treated as in Example 5, after 28 days

For `OCCNC1CCCc2c1[nH]c1ccc(-c3ccccc3)cc21` (stereo not shown) [CASIN], the weight [1] was “significant reduction; also recorded: weight loss”, the “number of stem cells in crypts (Bmi1 and Lgr5 staining)” value [2, 3] was “renewed number of stem cells” and the “shape, size and distribution of villi and crypts” value [2, 3] was “marked improvement”. For the same compound, the “shape, number and density of crypts” value ([2]; aged mice, 2.4 mg/Kg twice daily for 5 days, after 28 days) was “marked improvement”.
